Earlier results as cited in US20180193304A1, “PHYTOTERPENOID FACILITATION OF THERAPEUTIC ONSET AND EFFICACY OF SUBLINGUAL CANNABINOID ADMINISTRATION” (JC Pharma Inc., priority 2017, published 2018).

Key:
[1] = target: T1, CB2 receptor (Homo sapiens, UniProt P34972)
[2] = target: T1, CB2 receptor; remark: listed apart in the source
[3] = tested on: inflammation; conditions: compared to steroid alternatives
[4] = tested on: inflammation; conditions: mouse, in vivo
[5] = tested on: experimental airways allergic inflammation; conditions: oral

T1 sequence (P34972 whole entry): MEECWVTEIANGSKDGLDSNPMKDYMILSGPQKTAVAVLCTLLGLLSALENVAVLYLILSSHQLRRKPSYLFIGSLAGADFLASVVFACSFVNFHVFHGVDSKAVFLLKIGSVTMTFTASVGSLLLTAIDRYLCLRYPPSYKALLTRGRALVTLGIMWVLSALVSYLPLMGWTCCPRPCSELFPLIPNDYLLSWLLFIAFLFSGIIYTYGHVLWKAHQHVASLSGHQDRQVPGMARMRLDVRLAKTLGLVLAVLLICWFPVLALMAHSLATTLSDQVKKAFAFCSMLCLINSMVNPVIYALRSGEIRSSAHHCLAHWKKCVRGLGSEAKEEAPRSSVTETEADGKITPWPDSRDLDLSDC

Compound: C=C1CC/C=C(\C)CC[C@@H]2[C@@H]1CC2(C)C [β-caryophyllene]
- binding to the CB2 receptor [1]: selectively binds to the CB2 receptor
- functional activity at CB2 receptor [2]: functional CB2 agonist
- anti-inflammatory response [3]: comparable anti-inflammatory responses to steroid alternatives

Compound: C/C1=C\CC/C(C)=C/CC(C)(C)/C=C/C1 [humulene]
- anti-inflammatory response [3]: comparable anti-inflammatory responses to steroid alternatives
- reduction of inflammation and pain relief [4]: effective in reducing inflammation and offering pain relief
- reduction of inflammation [5]: highly effective at reducing inflammation
